Data: patent publication US20070066595A1, “Selective estrogen receptor modulators” (priority 2004, published 2007)
Read-outs that look alike come from different tables or passages of the source. Each block holds one compound with its values, some of them ahead of it.

Assays:
[1] = tested on: mature F344 female rats, serum LH and estradiol; experiment: 10-Day Rat Hormone (Ovarian Stimulation) Screen; format: in vivo; conditions: oral gavage 10 days; serum about 2 hours after 10th dose; RIA
Protocol: 10-Day Rat Hormone (Ovarian Stimulation) Screen: An initial, first screen for ovarian toxicity is conducted using a 10-day rat hormone study to measure estradiol and luteinizing hormone levels after compound administration. This screen is conducted by administering compound by oral gavage for 10 days to mature (9-10 week old) F344 female rats. Trunk blood is collected by rapid decapitation for evaluation of LH and estradiol levels approximately 2 hours after the 10th dose. Serum, obtained by centrifugation, is removed and stored frozen below −60° C. until assayed. Serum levels of LH and estradiol are measured using radioimmunoassay (RIA) methods.
Rat LH primary antibody and reference preparations (rat LH:RP-3) are obtained from Dr. A. F. Parlow, Director, Pituitary Hormones and Antisera Center, Harbor-UCLA Medical Center, Torrance, Calif. The LH assay upper limits of detection are 30 ng/mL and the lower limits of detection are 0.1 ng/mL for the 100 μl samples.
E2 Clinical Assays. DiaSorin s.r.l., Saluggia (Vercelli), Italy. The upper limit of detection is 1000 pg/mL and the lower limit of detection is 5 pg/mL.

[2] = tested on: immature (3 week old) female rats, estrogen-induced uterine weight; experiment: 3-Day Rat Uterus Antagonist Assay; format: in vivo; conditions: 3 days, with E2 0.1 mg/kg; for inhibition of the estrogen-induced response: 1.0 mg/kg oral, uterine weight/body weight ratio
Source text: 3-Day Rat Uterus Antagonist Assay: This model for uterine antagonism utilizes immature (3 week old) female rats that are highly sensitive to estrogenic stimulation of the uterus given that their circulating estrogen levels are prepubertal. The uteri from immature rats are fully responsive to exogenous estrogen, yet are quiescent in the absence of exogenous estrogen. Administration of exogenous estrogen to immature rats produces a reliable elevation of uterine weight, which can be used to study uterine antagonist effects. The rats are treated with both estradiol and 4 different concentrations of a compound of the present invention for 3 days and then uterine wet weights are measured.
Nineteen to twenty-one day old (or 45-50 g) female rats are orally treated with E2 (0.1 mg/kg, a maximal stimulatory estrogenic stimulus for reliably increasing uterine weight) and 10, 1.0, 0.1 and 0.01 mg/kg test compound for 3 days, 6 rats per group. Test compounds are dissolved in 20% β-hydroxycyclodextrin and administered by oral gavage in a volume of 0.2 mL daily (15 min. prior to the ethynyl estradiol gavage). A vehicle control, E2 alone and E2+raloxifene are also done as controls. The animals are fasted overnight following the final dose. On the following morning, the animals are weighed, then euthanized (by carbon dioxide asphyxiation) and the uteri rapidly collected (via a mid-line ventral incision) and weighed.
Uterine weight/body weight ratios (UWR) are calculated for each animal. The percent inhibition of the estrogen-induced response is then calculated by the following formula: percent inhibition=100×(UWRestrogen−UWRtest compound/UWRestrogen−UWRcontrol). ED50 values are derived from a semi-log regression analysis of the linear aspect of the dose response curve. Both the UWR data and the percent inhibition data are statistically analyzed by one way analysis of variance (ANOVA) with post-hoc testing by Fisher's PLSD when indicated by a p<0.05. Statistical analyses are performed using the Statview® 4.0 software package.

[3] = tested on: Ishikawa human endometrial tumor cells; experiment: Ishikawa Cell Proliferation Assay (alkaline phosphatase readout; agonist and antagonist modes); format: cell-based
Protocol: Ishikawa Cell Proliferation Assay: This assay measures cell proliferation (using an alkaline phosphatase readout) in both an agonist mode in the presence of a compound of the present invention alone, and in an antagonist mode in which the ability of a compound of the present invention to block estradiol stimulation of growth is measured.
Ishikawa human endometrial tumor cells are maintained in MEM (minimum essential medium, with Earle's salts and L-Glutamine, Gibco BRL, Gaithersburg, Md.), supplemented with 10% fetal bovine serum (FBS) (V/V), (Gibco BRL). One day prior to assay, growth media is changed to assay medium, DMEM/F-12 (3:1) (Dulbecco's Modified Eagle Medium: Nutrient Mixture F-12, 3:1 Mixture, phenol red-free, Gibco BRL) supplemented with 5% dextran coated charcoal stripped fetal bovine serum (DCC-FBS) (Hyclone, Logen, Utah), L-Glutamine (2 mM), MEM sodium pyruvate (1 mM), HEPES (N-[2-hydroxyethyl]piperazine-N′-[2-ethanesulfonic acid]2 mM) all from Gibco BRL). After an overnight incubation, Ishikawa cells are rinsed with Dulbecco's Phosphate Buffered Saline (1×) (D-PBS) without Ca^+2 and Mg^+2 (Gibco BRL), and trypsinized by a 3 minute incubation with 0.25% Trypsin/EDTA, phenol red-free (Gibco BRL). Cells are resuspended in assay medium and adjusted to 250,000 cells/mL. Approximately 25,000 cells in a 100 ul media are added to flat-bottom 96 wells microculture plates (Costar 3596) and incubated at 37° C. in a 5% CO2 humidified incubator for 24 hours. […]
For the antagonist mode, plates receive 25 μl/well of 6 nM E2 (β-Estradiol, Sigma, St. Louis, Mo.) followed by 25 μl/well of a diluted compound of the present invention (at 6× the final concentrations). […] After a 20-minute incubation, plates are read on a spectophotometer at 405 nm.
The data is fitted to a linear interpolation to derive EC50 (for agonist mode) or IC50 (for antagonist mode) values. For the antagonist mode, a % efficacy for each compound is calculated versus E2 (1 nM) alone. For the agonist mode, a % efficacy for each compound is calculated versus the response to tamoxifen.

circulating LH levels [1]: did not significantly elevate | circulating estradiol levels [1]: did not significantly elevate
SMILES: CS(=O)(=O)C1CC=C(c2ccc3cc(O)ccc3c2Oc2ccc(OCCN3CCCCC3)cc2)CC1.Cl (racemic) [Example 2, (+/−)-6-(4-Methanesulfonyl-cyclohex-1-enyl)-5-[4-(2-piperidin-1-yl-ethoxy)-phenoxy]-naphthalen-2-ol Hydrochloride]
inhibition of the estrogen-induced response [2]: inhibit the estrogen-induced response

IC50 ([3]; antagonist mode, block of estradiol stimulation): 7.2 nM
SMILES: Cl.O=S1(=O)CC=C(c2ccc3cc(O)ccc3c2Oc2ccc(OCCN3CCCCC3)cc2)CC1 [Example 9, 6-(1,1-Dioxo-1,2,3,6-tetrahydro-1λ^6-thiopyran-4-yl)-5-[4-(2-piperidin-1-yl-ethoxy)-phenoxy]-naphthalen-2-ol Hydrochloride]
Emax ([3]; agonist mode, versus the response to tamoxifen, read-out: relative % efficacy): 19% | Emax ([3]; antagonist mode, versus E2 (1 nM) alone, read-out: % efficacy (inhibition of the 1 nM estradiol response)): 97.9% | inhibition of the estrogen-induced response [2]: inhibit the estrogen-induced response | % antagonism ([2]; oral): 72.6% | ED50 ([2]; oral): 0.17 mpk

SMILES: CS(=O)(=O)C1CCC(c2ccc3cc(O)ccc3c2Oc2ccc(OCCN3CCCCC3)cc2)CC1.Cl (stereo not drawn) [Example 3, 6-cis-and-trans-(4-Methanesulfonyl-cyclohexyl)-5-[4-(2-piperidin-1-yl-ethoxy)-phenoxy]-naphthalen-2-ol Hydrochloride]
inhibition of the estrogen-induced response [2]: inhibit the estrogen-induced response

SMILES: Cl.O=S1(=O)CCC(c2ccc3cc(O)ccc3c2Oc2ccc(OCCN3CCCCC3)cc2)CC1 [Example 10, 6-(1,1-Dioxo-hexahydro-1λ^6-thiopyran-4-yl)-5-[4-(2-piperidin-1-yl-ethoxy)-phenoxy]-naphthalen-2-ol Hydrochloride]
inhibition of the estrogen-induced response [2]: inhibit the estrogen-induced response
